{"source": "patent US11958887B2", "about": "“Gene therapy for tuberous sclerosis” (The General Hospital Corporation, priority 2017, dated 2024)", "tested_on": "Tsc2^c/c mice injected ICV with AAV1-CBA-Cre", "test": "Survival of Tsc2^c/c mice lacking tuberin (AAV1-CBA-Cre ICV) after treatment", "assay_type": "in vivo", "details": "AAV1-CBA-Cre ICV at P0; no cTuberin vector; vigabatrin 200 mg/kg", "experimental": "Experimental research protocols were approved by the Institutional Animal Care and Use Committee (IACUC) for the Massachusetts General Hospital (MGH) following the guidelines of the National Institutes of Health for the Care and Use of Laboratory Animals. Experiments were performed on Tsc2^c/c floxed mice (Onda et al., J. Clin. Invest. 104(6):687-695, 1999). In response to Cre recombinase, the Tsc2^c/c alleles are converted to null alleles, and the lacZallele expresses β-galactosidase. These mice have a normal, healthy lifespan.\nFor vector injections, on the day of birth (postnatal day 0 (P0)) or on P3, neonates were cryo-anesthetized and injected with 1 μl or 2 μl of viral vector AAV1-CBA-Cre into each cerebral lateral ventricle with a glass micropipette ([…] diameter at the tip) using a Narishige® IM300 microinjector at a rate of 2.4 psi/sec (Narshige International, East Meadow, NY). Mice were then placed on a warming pad and returned to their mothers after regaining normal color and full activity typical of newborn mice.\nAt 3 weeks of age (P21) mice were anesthetized by isoflurane inhalation (3.5% isoflurane in an induction chamber, then maintained anesthetized with 2-3% isoflurane and 1-2 liter/min oxygen for the duration of the experiment). […]"}
{"smiles": "C=CC(N)CCC(=O)O", "note": "(stereo not shown) [vigabatrin]", "values": [{"measurement": "median survival", "result": 27, "unit": "days"}]}
